Experimental findings from PMC10739630, “Galidesivir Triphosphate Promotes Stalling of Dengue-2 Virus Polymerase Immediately Prior to Incorporation” (ACS Infectious Diseases, 2023) are described below.

Holding throughout (assay type): biochemical
For experiment [1], the target named is T1, DENV2 NS5 (Dengue virus 2 Thailand/16681/84, UniProt P29990). Conditions: read-out: KM^app for ATP.
Experiment [2] addresses ZIKV NS5 (Zika virus, UniProt Q32ZE1). Description: SYTO […] fluorescence RdRp assay, A2-primed, poly(U) template. The note with it: read-out: IC50 ^a (μM, mean ± std. dev.).
For experiment [3], the target named is T1, DENV2 NS5. Described as above. The note with it: read-out: IC50 ^a (μM, mean ± std. dev.).

T1 sequence (P29990 2492-3391 limits assumed): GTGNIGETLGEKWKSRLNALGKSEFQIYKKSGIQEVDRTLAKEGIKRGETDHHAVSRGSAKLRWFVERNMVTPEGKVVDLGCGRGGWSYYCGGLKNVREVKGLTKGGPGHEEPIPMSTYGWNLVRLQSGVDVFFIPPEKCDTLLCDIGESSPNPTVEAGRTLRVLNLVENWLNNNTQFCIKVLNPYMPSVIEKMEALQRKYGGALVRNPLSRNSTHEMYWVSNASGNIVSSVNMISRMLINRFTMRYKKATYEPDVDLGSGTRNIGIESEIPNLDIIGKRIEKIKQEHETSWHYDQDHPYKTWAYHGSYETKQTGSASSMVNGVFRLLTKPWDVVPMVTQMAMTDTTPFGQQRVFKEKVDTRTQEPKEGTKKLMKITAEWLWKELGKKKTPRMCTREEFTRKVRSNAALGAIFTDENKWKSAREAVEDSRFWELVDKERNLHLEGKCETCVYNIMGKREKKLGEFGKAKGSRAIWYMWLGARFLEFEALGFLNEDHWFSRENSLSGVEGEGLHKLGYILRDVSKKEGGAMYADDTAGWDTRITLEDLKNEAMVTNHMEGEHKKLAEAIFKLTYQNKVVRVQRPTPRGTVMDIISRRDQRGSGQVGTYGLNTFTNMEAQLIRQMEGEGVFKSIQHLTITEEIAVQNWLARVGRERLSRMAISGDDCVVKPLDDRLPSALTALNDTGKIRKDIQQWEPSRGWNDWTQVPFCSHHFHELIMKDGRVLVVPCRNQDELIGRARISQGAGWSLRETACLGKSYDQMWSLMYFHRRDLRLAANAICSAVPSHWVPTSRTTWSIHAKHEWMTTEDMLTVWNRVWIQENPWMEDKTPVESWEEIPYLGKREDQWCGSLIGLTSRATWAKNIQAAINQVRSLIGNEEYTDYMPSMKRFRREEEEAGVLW
ZIKV NS5, sequence (Q32ZE1 2517-3419): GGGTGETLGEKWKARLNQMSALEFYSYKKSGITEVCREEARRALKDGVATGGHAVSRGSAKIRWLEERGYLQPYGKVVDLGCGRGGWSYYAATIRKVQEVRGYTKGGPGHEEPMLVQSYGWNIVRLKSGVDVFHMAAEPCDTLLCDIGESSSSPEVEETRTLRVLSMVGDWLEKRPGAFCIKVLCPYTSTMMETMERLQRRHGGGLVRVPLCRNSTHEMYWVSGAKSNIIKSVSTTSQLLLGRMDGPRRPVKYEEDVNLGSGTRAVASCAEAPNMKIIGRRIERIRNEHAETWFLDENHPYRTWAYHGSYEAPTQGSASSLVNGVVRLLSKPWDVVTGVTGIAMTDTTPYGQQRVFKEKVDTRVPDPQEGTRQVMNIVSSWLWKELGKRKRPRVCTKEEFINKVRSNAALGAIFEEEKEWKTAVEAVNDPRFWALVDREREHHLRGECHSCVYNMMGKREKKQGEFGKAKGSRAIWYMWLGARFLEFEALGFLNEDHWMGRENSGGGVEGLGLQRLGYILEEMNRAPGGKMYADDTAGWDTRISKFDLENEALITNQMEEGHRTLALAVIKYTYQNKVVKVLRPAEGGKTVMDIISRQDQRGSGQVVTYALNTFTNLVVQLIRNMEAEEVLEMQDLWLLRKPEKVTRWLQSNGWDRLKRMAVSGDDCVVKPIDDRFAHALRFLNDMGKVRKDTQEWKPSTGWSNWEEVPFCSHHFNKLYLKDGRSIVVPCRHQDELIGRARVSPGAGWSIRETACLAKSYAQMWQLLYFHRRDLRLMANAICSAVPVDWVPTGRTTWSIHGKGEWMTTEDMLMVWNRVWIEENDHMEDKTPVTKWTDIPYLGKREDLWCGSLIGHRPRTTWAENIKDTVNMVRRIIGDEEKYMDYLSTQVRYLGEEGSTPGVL

Turning to `Nc1ncnc2c1ncn2[C@@H]1O[C@H](COP(=O)(O)OP(=O)(O)OP(=O)(O)O)[C@@H](O)[C@H]1O` [ATP], the Km (commonly the substrate concentration at which the rate is half of its maximum) in experiment [1] was 430 µM.

Consider `Nc1ncnc2c([C@@H]3N[C@H](COP(=O)(O)OP(=O)(O)OP(=O)(O)O)[C@@H](O)[C@H]3O)c[nH]c12` [Gal-TP], for which the results for the IC50 in experiment [2] and in experiment [3] were 47 ± 5 µM and 42 ± 12 µM, respectively.

As to `Nc1ncnc2c1ncn2[C@@H]1O[C@H](COP(=O)(O)OP(=O)(O)OP(=O)(O)O)C[C@H]1O` [3′-dATP, reference compound], the IC50 (in general, the concentration that inhibits the measured activity by half) in experiment [2] was found to be 0.06 ± 0.02 µM; in experiment [3], 0.48 ± 0.05 µM.
